# Experimental data from patent US20170050966A1, “INHIBITING THE TRANSIENT RECEPTOR POTENTIAL A1 ION CHANNEL” (HYDRA BIOSCIENCES, INC., priority 2014, published 2017).
# Read-outs that look alike come from different tables or passages of the source.
# Columns and labels:
# [1] = system: beagle dogs; experiment: Hepatotoxicity safety profile, serum biomarkers; type: in vivo; settings: for ALP d-5 / ALT d-5 / AST d-5 / GGT d-5: day -5 before dosing; for ALP d5 / ALT d5 / AST d5 / GGT d5: day 5
# Protocol: Compound 2 in vehicle (0.5% methylcellulose [400 cps] in deionized water) was administered orally once daily for five consecutive days by gavage once to 3 groups of non-naïve male and female beagle dogs. Each group received one dose level. […] […] The dose volume was 10 ml/kg for all groups. Hepatoxicity was measured via the serum biomarkers of alanine aminotransferease [ALT], aspartate aminotransferase [AST], alkaline phosphastase [ALP] and gamma-glutamyl transferase [GGT] which represent hepatotoxicity or bile duct injury.
# [2] = system: sprague-dawley rats; experiment: Hepatotoxicity safety profile, serum biomarkers; type: in vivo; settings: for ALP d28 / ALT d28 / AST d28 / GGT d28: day 28
# Protocol: Compound 2 in the vehicle (0.5% methylcellulose [400 cps]) was administered orally by gavage once daily for a minimum of 28 consecutive days to 3 groups of sprague-dawley rats from Charles River Laboratories. Each group received one dosage level. Dosage levels were 30, 100, and 300 mg/kg/day for each group. […] The dose volume was 10 ml/kg for all groups. Hepatoxicity was measured via the serum biomarkers of alanine aminotransferease [ALT], aspartate aminotransferase [AST], alkaline phosphastase [ALP] and gamma-glutamyl transferase [GGT] which represent hepatotoxicity or bile duct injury.
# [3] = Plasma protein binding, equilibrium dialysis; type: in vitro ADME; settings: pooled K2EDTA plasma, read-out: Mean % Bound ± SD (converted)
# Protocol: With this method, free compound is separated from protein-bound compound by dialysis across a semi-permeable membrane.
# The protein binding was tested at a concentration of 1 μM. Pooled human, cynomolgus monkey, dog, and rat K2EDTA plasma was thawed and centrifuged at 2000×g for 10 minutes at 4° C. to remove particulates; any lipid on the top of the supernatant was also removed by aspiration. The plasma was warmed to 37° C. for 10 minutes before use. Test compounds were spiked into 2 ml plasma in a polypropylene plate to a final concentration of 1 μM. Triplicate 400 μl aliquots of spiked plasma were transferred into the Thermo RED dialysis units and dialyzed against 600 μl of PBS buffer. […] After 6 hours dialysis, triplicate 50 μl aliquots were removed from the RED plate, matrix-matched with either PBS buffer or blank plasma, as appropriate, and quenched with 4 volumes of ACN containing an internal standard. The extracted samples were then centrifuged at 2000×g for 5 minutes at 4° C. The supernatant (50 μl) was removed and diluted with 100 μl water prior to LC/MS/MS bioanalysis.
# [4] = system: T1, human CYP450 enzymes (seven isozymes tested); experiment: CYP450 inhibition, seven isozymes overall; type: biochemical; settings: human, read-out: calculated IC50 values
# T1 construct: other: seven isozymes tested
# [5] = system: human CYP450 enzymes; experiment: CYP450 inhibition, seven isozymes overall; type: biochemical; settings: 10 μM, seven isozymes tested
# [6] = molecular target: CYP2C8 (Homo sapiens, UniProt P10632); experiment: in vitro; settings: probe Amodiaquine
# [7] = system: allergic sheep challenged with Ascaris suum; experiment: Sheep model of allergic bronchoconstriction and airway hyperresponsiveness; type: in vivo
# Protocol: Compound 2 was also tested in the sheep model of allergic bronchoconstriction and airway hyperresponsiveness according to the methods disclosed in Abraham, W. M Palm Pharmacol Ther (2008) 21:743-754. Allergic sheep challenged with Ascaris suum show a substantial, biphasic increase in pulmonary resistance (RL). The first four hours are considered the early asthmatic response (EAR); the next four hours (hours 4-8) are considered to be the late asthmatic response (LAR). To assess airway responsiveness (AHR), the cumulative carbachol dose in breath units that increased pulmonary resistance 400% over the post-buffer value (PC 400) was calculated from the dose response curve. One breath unit was defined as one breath of a 1% w/v carbachol solution. A pre-challenge PC 400 was obtained 1-3 days before the start of dosing.
# Compound 2 was formulated as a micronized powder suspended in 0.5% methylcellulose at a concentration of 6 mg/ml and administered orally at a dose of 30 mg/kg once a day for 4 days, at the same approximate time each day. Sheep were given 30 mg/kg Compound 2 orally daily four days. Two hours after the final dose of Compound 2, the sheep were subjected to an allergen (Ascaris) challenge. Each sheep was restrained in a prone position and its head was immobilized prior to topical anesthesia of the nasal passages. A balloon catheter was advanced through one nostril into the lower esophagus. Each sheep was intubated with a cuffed endotracheal tube through the other nostril. Tracheal and pleural pressures were determined using the endotracheal tube and balloon catheter, respectively. The trans-pulmonary pressure, i.e., the difference between the tracheal and pleural pressures, was measured using a differential pressure transducer catheter system. RL was determined by connecting the distal end of the endotracheal tube to a pneumotachograph. Data were collected from five to ten breaths to a computer and used to calculate RL. Data from the same sheep challenged with Ascaris prior to the initiation of Compound 2 treatment were used to establish baseline values. Monitoring conditions for the control and drug trials were identical.
# On the day of challenge and two hours after the final dose of Compound 2, an aerosol of Ascaris suum (82,000 protein nitrogen units/mL) was generated using a nebulizer and delivered to the sheep using a Harvard respirator. RL was determined one hour prior to challenge, immediately following Ascaris challenge, and hourly thereafter for eight hours. Challenge to 4 hours is considered the EAR while 4 to 8 hours is considered the LAR.
# Sheep were also challenged with aerosolized carbachol, a cholinergic agonist that has a negative impact on AHR. […]
# [8] = 30 mg/kg orally once a day for 4 days
# CYP2C8, sequence (P10632 whole entry): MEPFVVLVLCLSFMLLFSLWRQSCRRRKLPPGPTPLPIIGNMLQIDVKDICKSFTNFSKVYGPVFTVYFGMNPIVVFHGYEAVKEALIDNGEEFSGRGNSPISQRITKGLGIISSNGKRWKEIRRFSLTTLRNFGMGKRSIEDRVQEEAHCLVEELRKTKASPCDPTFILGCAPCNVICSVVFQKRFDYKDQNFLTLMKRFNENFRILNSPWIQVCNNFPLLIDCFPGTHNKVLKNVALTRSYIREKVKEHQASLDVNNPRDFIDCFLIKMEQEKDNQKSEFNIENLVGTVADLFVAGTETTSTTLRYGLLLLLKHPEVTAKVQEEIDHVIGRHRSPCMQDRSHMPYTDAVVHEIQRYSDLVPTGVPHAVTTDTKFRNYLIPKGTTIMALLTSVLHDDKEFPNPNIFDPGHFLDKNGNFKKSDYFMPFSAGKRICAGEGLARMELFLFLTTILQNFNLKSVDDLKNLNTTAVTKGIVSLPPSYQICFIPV
smiles,measurement,setting,value
"C[C@@H](C(=O)Nc1ccnc(-c2cnc(N3CCC[C@H]3C(F)(F)F)nc2)n1)n1cnc2c1c(=O)n(C)c(=O)n2C [Compound 2, (S)-2-(1,3-dimethyl-2,6-dioxo-2,3-dihydro-1H-purin-7(6H)-yl)-N-(2′-((S)-2-(trifluoromethyl)pyrrolidin-1-yl)-[2,5′-bipyrimidin]-4-yl)propanamide]",ALP d-5,[1]; 30 mg/kg group,93.0 U/L
same,ALT d-5,[1]; 30 mg/kg group,19.0 U/L
same,AST d-5,[1]; 30 mg/kg group,20.0 U/L
same,GGT d-5,[1]; 30 mg/kg group,0.0 U/L
same,ALP d5,[1]; 30 mg/kg oral once daily,143.0 U/L
same,ALT d5,[1]; 30 mg/kg oral once daily,20.0 U/L
same,AST d5,[1]; 30 mg/kg oral once daily,22.0 U/L
same,GGT d5,[1]; 30 mg/kg oral once daily,0.0 U/L
same,ALP d-5,[1]; 100 mg/kg group,120.0 U/L
same,ALT d-5,[1]; 100 mg/kg group,21.0 U/L
same,AST d-5,[1]; 100 mg/kg group,20.0 U/L
same,GGT d-5,[1]; 100 mg/kg group,0.0 U/L
same,ALP d5,[1]; 100 mg/kg oral once daily,141.0 U/L
same,ALT d5,[1]; 100 mg/kg oral once daily,19.0 U/L
same,AST d5,[1]; 100 mg/kg oral once daily,21.0 U/L
same,GGT d5,[1]; 100 mg/kg oral once daily,0.5 U/L
same,ALP d-5,[1]; 300 mg/kg group,118.0 U/L
same,ALT d-5,[1]; 300 mg/kg group,28.0 U/L
same,AST d-5,[1]; 300 mg/kg group,22.0 U/L
same,GGT d-5,[1]; 300 mg/kg group,0.0 U/L
same,ALP d5,[1]; 300 mg/kg oral once daily,101.0 U/L
same,ALT d5,[1]; 300 mg/kg oral once daily,21.0 U/L
same,AST d5,[1]; 300 mg/kg oral once daily,22.0 U/L
same,GGT d5,[1]; 300 mg/kg oral once daily,0.0 U/L
same,"serum biomarkers of hepatotoxicity (ALT, AST, ALP, GGT)","[1]; beagle dogs, oral once daily for five days",did not elevate the serum biomarkers up to and including a dose of 300 mg/kg
same,ALP d28,[2]; 30 mg/kg/day oral,168.0 U/L
same,ALT d28,[2]; 30 mg/kg/day oral,33.0 U/L
same,AST d28,[2]; 30 mg/kg/day oral,98.0 U/L
same,GGT d28,[2]; 30 mg/kg/day oral,0.0 U/L
same,ALP d28,[2]; 100 mg/kg/day oral,185.0 U/L
same,ALT d28,[2]; 100 mg/kg/day oral,34.0 U/L
same,AST d28,[2]; 100 mg/kg/day oral,100.0 U/L
same,GGT d28,[2]; 100 mg/kg/day oral,0.0 U/L
same,ALP d28,[2]; 300 mg/kg/day oral,163.0 U/L
same,ALT d28,[2]; 300 mg/kg/day oral,43.0 U/L
same,AST d28,[2]; 300 mg/kg/day oral,115.0 U/L
same,GGT d28,[2]; 300 mg/kg/day oral,0.0 U/L
same,"serum biomarkers of hepatotoxicity (ALT, AST, ALP, GGT)","[2]; sprague-dawley rats, oral once daily for 28 days",did not elevate the serum biomarkers up to and including a dose of 300 mg/kg
same,"fraction unbound at 6 h, 1 μM",[3]; Human plasma,0.015
same,"fraction unbound at 6 h, 1 μM",[3]; Sprague dawley rat plasma,0.047
same,IC50,[4],> 10 µM
same,maximum block of human CYP450 enzymes,[5],up to 37%
same,inhibition at 10 µM,[6],3.2%
same,peak early airway responses,[7]; [8],did not affect the peak early airway responses
same,protection of late airway responses,[7]; [8],85%
same,airway hyperresponsiveness (PC400),"[7]; 30 mg/kg orally, carbachol challenge 24 hours after final dose",reduced the airway hyperresponsiveness to levels similar to those observed in sheep that were not challenged with Ascaris suum
same,average LAR (increase in pulmonary resistance),"[7]; treatment trial, 30 mg/kg orally once a day for 4 days",19±2.3%
